Columns and labels:
[1] = tested on: cytoplasmatic membrane integrity; format: cell-based
Experimental: (§1) However, in order to verify further the robustness of the developed methods, these algorithms were tested on FOV-averaged data generated from a real toxicity assay. The cell-based experiment involved the influence of several drugs and the applications of two fluorescent markers during a 5-hour time course. The general background for such an experimental study is outlined in the article by O'Brien et al.
The first example analyzed the cytoplasmatic membrane integrity, as indicated by the TOTO-3 marker. TOTO-3 stains cell nuclei only after cell plasma membrane disruption. The response1(t) generated by disruption to the membrane is therefore a curve representing the increase of cell nuclei intensity in TOTO-3 channel. This intensity was measured by a microscopy HTS system. However, the exact moment when a particular membrane became disrupted was unpredictable.
The analysis therefore used stochastic fitting involving a single time parameter (the width of the box-shaped distribution of starting times of the response).
FIG. 11 represents the raw TOTO-3 response. The TOTO-3 response was taken for two values of drug concentration, denoted “high” and “low”.
Data fitting was performed using a response1(t) function having an exponential rising shape. τ was equal to 15 minutes, A=0.5 and B=1.48. The starting time distribution was box shaped with tmin=0 and widtht−fitted.

[2] = tested on: mitochondrial membrane potential; format: cell-based
Experimental: Various examples describing various real-life responses obtained using the mitochondrial marker TMRM will now be given. In actual images of cells stained with TMRM, the level of fluorescence intensity is related to the mitochondrial membrane potential, loss of which can be an indicator of cytotoxicity.
as §1
The second example analyzed a mitochondrial marker (TMRM) response. […] It was assumed that all cells started reacting immediately after drug addition. The reaction of a mitochondrial potential to a perturbation (i.e. a drug) is considered to be potentially very diverse.
The expression defined in Equation 16 above is very flexible, and uses as a fitting parameter the single time scale (“τ”), amplitude (“range”) and another parameter (“α”) for controlling response nonlinearity.
The TMRM response was taken for two values of drug concentration, denoted “high” and “low”.
Data fitting was performed using the technique discussed in relation to Equation 16, above. […]

Structure (SMILES)	TOTO-3 response speed (characteristic time) relative to controls [1]	effect on mitochondrial function (TMRM response) [2]
COc1ccc(CCN2CCC(Nc3nc4ccccc4n3Cc3ccc(F)cc3)CC2)cc1 [astemizole]	responding faster than controls	
O=C1CN(/N=C/c2ccc(-c3ccc([N+](=O)[O-])cc3)o2)C(O)=N1 [dantrolene]		no effect
Cc1oncc1C(=O)Nc1ccc(C(F)(F)F)cc1 [leflunomide]		no effect
CC[C@H](C)C(=O)O[C@H]1C[C@@H](C)C=C2C=C[C@H](C)[C@H](CC[C@@H]3C[C@@H](O)CC(=O)O3)[C@H]21 [lovastatin]	responding faster than controls	
CC/C(=C(\c1ccccc1)c1ccc(OCCN(C)C)cc1)c1ccccc1 [tamoxifen]	responding faster than controls	

Source: patent publication US9047503B2, “System and method for automated biological cell assay data analysis” (GE HEALTHCARE UK LIMITED, priority 2010, dated 2015)
